Key:
[1] = system: HIV-1Bal (R5-tropic); assay: Test for inhibition of macrophage infection; type: cell-based
Description: (§1) In order to carry out cytotoxicity and infection-inhibiting activity tests, three cell types and two viral strains were used. This involved a laboratory strain HIV-1NDK(X4-tropic) which was amplified by lymphocytes originating from healthy donors, and a primary strain HIV-1Bal (R5-tropic) which was amplified by macrophages.
(§2) As regards the cell types, macrophages and dendritic cells were obtained from peripheral blood mononuclear cells. In addition, lymphocytes were provided.
(§3) As regards the inhibitory activity, the macrophages or the dendritic cells are incubated with viral particles of the abovementioned strains, HIV-1NDK(X4-tropic) or HIV-1Bal (R5-tropic), in the presence and absence of the terpenic compositions. The cells are subsequently washed and then put back in culture and, finally, centrifuged. The supernatants are then recovered and the viral particles are lyzed in order to measure the concentration of a viral protein using the ELISA assay. In this way, the inhibitory activity of the terpenic compositions is evaluated by comparison between the nontreated infected cells and the treated infected cells.
(§4) Next, the inhibition of the infection of the macrophages was evaluated. Since the latter are potential reservoirs for HIV, it is a question of measuring the ability of the terpenic composition to prevent infection of the macrophages.

[2] = system: HIV-1Bal (R5-tropic); assay: Test for inhibition of transfer from dendritic cells to T lymphocytes; type: cell-based
Method: (§5) In addition, tests for transfer of the virus, from the dendritic cells to autologous T lymphocytes, i.e. T lymphocytes originating from the same stem cells, were carried out.
(§6) For this, dendritic cells are transferred and incubated with each of the terpenic compositions and the virus. Next, after washing, autologous T lymphocytes are added in a ratio of one dendritic cell to five T lymphocytes. The concentration of viral proteins of the abovementioned type is then evaluated by means of the ELISA assay.
(§7) Dendritic cells express, at their surface, an adhesion protein, DC-SIGN, which forms a viral receptor capable of capturing HIV and of facilitating the infection of permissive cells via a “trans-infection” mechanism. This is because the DC-SIGN receptor can interact with the envelope of HIV and hold the virion in an infectious state so as to subsequently transmit it to permissive T lymphocytes in the adjacent lymph nodes.

[3] = system: HIV-1NDK (X4-tropic); assay: as above; type: cell-based
Method: as §5, §6, §7

[4] = system: X4 strains; assay: Direct activity on X4 strains (noninfectious / detergent activity); design: species or system HIV-1; settings: diluted to 1/100th
[5] = system: HIV-1Bal (R5-tropic); assay: Test for inhibition of dendritic cell infection; type: cell-based
Description: as §1, §2, §3
(§8) Furthermore, tests were carried out on the inhibition of dendritic cell infection, since these cells are involved in HIV transmission at the mucosal level.

[6] = system: HIV-1NDK (X4-tropic); assay: Test for inhibition of dendritic cell infection; type: cell-based
Description: as §1, §2, §3, §8

[7] = system: HIV-1NDK (X4-tropic); assay: Test for inhibition of macrophage infection; type: cell-based
Description: as §1, §2, §3, §4

[8] = diluted to 1/200th, listed as Third
[9] = diluted to 1/200th, listed as third preparation
[10] = diluted to 1/2000th, listed as Fourth
[11] = diluted to 1/2000th, listed as fourth preparation

Substance: zinc aceto-salicylo-borneolate [Fifth preparation]
- inhibition of infection of macrophages with strains of the R5-tropic group ([1]; diluted to 50%): more than 50%

Substance: zinc ascorbo-camphorate [Third preparation]
- inhibition of transfer from dendritic cells to T lymphocytes, HIV-1Bal (R5-tropic) [2, 8]: >95%
- inhibition of transfer from dendritic cells to T lymphocytes, HIV-1Bal (R5-tropic) [2, 9]: more than 95%
- inhibition of transfer from dendritic cells to T lymphocytes, HIV-1Bal (R5-tropic) ([2]; diluted to 1/2000th): the same results
- inhibition of transfer from dendritic cells to T lymphocytes, HIV-1NDK (X4-tropic) [3, 8]: >95%
- inhibition of transfer from dendritic cells to T lymphocytes, HIV-1NDK (X4-tropic) [3, 9]: more than 95%
- detergent activity with respect to the X4 strains [4]: has a detergent activity
- rendering the X4 strains noninfectious [4]: capable of rendering the X4 strains noninfectious
- inhibition of dendritic cell infection, HIV-1Bal (R5-tropic) [5, 8]: >95%
- inhibition of dendritic cell infection, HIV-1Bal (R5-tropic) [5, 9]: more than 95%
- inhibition of dendritic cell infection, HIV-1NDK (X4-tropic) [6, 8]: >95%
- inhibition of dendritic cell infection, HIV-1NDK (X4-tropic) [6, 9]: more than 95%
- inhibition of macrophage infection, HIV-1Bal (R5-tropic) [1, 8]: >95%
- inhibition of macrophage infection, HIV-1Bal (R5-tropic) [1, 9]: more than 95%
- inhibition of macrophage infection, HIV-1Bal (R5-tropic) ([1]; diluted to 1/2000th): the same results
- inhibition of macrophage infection, HIV-1NDK (X4-tropic) [7, 8]: >95%
- inhibition of macrophage infection, HIV-1NDK (X4-tropic) [7, 9]: more than 95%
- inhibition of macrophage infection, HIV-1NDK (X4-tropic) ([7]; diluted to 1/2000th): the same results

Substance: zinc cinnamo-camphorate [Fourth preparation]
- inhibition of transfer from dendritic cells to T lymphocytes, HIV-1Bal (R5-tropic) ([2]; diluted to 1/2000th): 0%
- inhibition of transfer from dendritic cells to T lymphocytes, HIV-1NDK (X4-tropic) ([3]; diluted to 1/2000th): 0%
- inhibition of dendritic cell infection, HIV-1Bal (R5-tropic) ([5]; diluted to 1/2000th): 0%
- inhibition of dendritic cell infection, HIV-1NDK (X4-tropic) ([6]; diluted to 1/2000th): 0%
- inhibition of macrophage infection, HIV-1Bal (R5-tropic) [1, 10]: >90%
- inhibition of macrophage infection, HIV-1Bal (R5-tropic) [1, 11]: the same results
- inhibition of macrophage infection, HIV-1NDK (X4-tropic) [7, 10]: >90%
- inhibition of macrophage infection, HIV-1NDK (X4-tropic) [7, 11]: the same results
